A value given as a limit tells only on which side of the number the result lay.

The assay has as its target T1, Bromodomain-containing protein 9 (Homo sapiens, UniProt Q9H8M2).
T1 sequence (Q9H8M2 whole entry): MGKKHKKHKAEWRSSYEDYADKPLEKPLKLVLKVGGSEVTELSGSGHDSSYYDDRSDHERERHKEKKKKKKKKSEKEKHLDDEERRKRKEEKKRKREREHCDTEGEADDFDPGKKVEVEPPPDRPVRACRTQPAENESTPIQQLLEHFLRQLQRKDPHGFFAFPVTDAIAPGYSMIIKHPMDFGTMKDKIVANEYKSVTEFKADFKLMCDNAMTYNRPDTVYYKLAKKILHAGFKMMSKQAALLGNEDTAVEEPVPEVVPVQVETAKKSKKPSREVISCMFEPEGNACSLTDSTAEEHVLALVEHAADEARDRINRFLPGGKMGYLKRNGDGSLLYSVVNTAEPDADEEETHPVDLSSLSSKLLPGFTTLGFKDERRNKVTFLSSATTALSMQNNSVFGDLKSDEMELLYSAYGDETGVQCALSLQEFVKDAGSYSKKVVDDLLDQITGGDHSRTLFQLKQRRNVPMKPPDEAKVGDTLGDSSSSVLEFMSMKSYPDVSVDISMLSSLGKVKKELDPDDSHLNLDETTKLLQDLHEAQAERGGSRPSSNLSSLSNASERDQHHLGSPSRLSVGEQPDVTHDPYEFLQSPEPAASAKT
Description: Bromodomain TR-FRET Competition Binding Assay: A mixture of biotinylated-ligand and SureLight Allophycocyanin-Streptavidin (APC-SA, PerkinElmer AD0201) in 50 mM HEPES (pH 7.4), 50 mM NaCl, 1 mM TCEP (pH 7), 0.01% (v/v) Tween-20, 0.01% (w/v) bovine serum albumin was added to a white 384-well PerkinElmer Proxiplate Plus plate. DMSO or 3-fold serially diluted compounds were then added to the Proxiplate followed by addition of Flag-BRD9. After a 10-minute incubation at room temperature, Eu-W1024 anti-FLAG (PerkinElmer, AD0273) was added. The final reaction miture that contained 3.75 nM biotinylated ligand, 3 nM Flag-BRD9, 7.5 nM SureLight Allophycocyanin-Streptavidin, and 0.2 nM Eu-W1024 anti-FLAG was incubated at room temperature for 90 minutes. Background: In TR-FRET formats the signal depends on donor and acceptor labels being close together.
Regarding `COc1cc(-c2cn(C)c(=O)c3cnccc23)cc(OC)c1CN1CCCC(OCc2cn(CCCCOc3ccc4c(c3)C(=O)N(C3CCC(=O)NC3=O)C4=O)nn2)C1` (stereo not given), the half-maximal inhibitory concentration (IC50) is greater than 10 nM.

Consider `COc1cc(-c2cn(C)c(=O)c3cnccc23)cc(OC)c1CN1CC(OCc2cn(CCOc3ccc4c(c3)C(=O)N(C3CCC(=O)NC3=O)C4=O)nn2)C1` (stereo not given), for which the IC50 is less than 10 nM.

Take `COc1cc(-c2cn(C)c(=O)c3cnccc23)cc(OC)c1CN1CCN(C(=O)CCCCOc2cccc3c2C(=O)N(C2CCC(=O)NC2=O)C3=O)CC1` (stereo not given): the IC50 is less than 10 nM.

With `COc1cc(-c2cn(C)c(=O)c3cnccc23)cc(OC)c1CN1CC(S(=O)(=O)NCCCCNc2ccc3c(c2)C(=O)N(C2CCC(=O)NC2=O)C3=O)C1` (stereo not given), the IC50 was less than 10 nM.

For the molecule `COc1cc(-c2cn(C)c(=O)c3cnccc23)cc(OC)c1CN(C)Cc1cn(-c2ccc3c(c2)C(=O)N(C2CCC(=O)NC2=O)C3=O)nn1` (stereo not given), the IC50 was greater than 10 nM.

By IC50 is commonly meant the concentration needed to halve the response being measured.

Source of the values: ChEMBL document CHEMBL5729255, “Compounds and uses thereof” (2022).
